# In US20100150834A1, “HIGH AFFINITY EPHB RECEPTOR BINDING COMPOUNDS AND METHODS OF USE THEREOF” (priority 2006, published 2010):
# Read-outs that look alike come from different tables or passages of the source. No end group written: not given here.
# Assays:
# murine EphB4 = target: T1, murine EphB4 (Mus musculus, UniProt P54761); assay: Binding ELISA on immobilized murine EphB4-Fc, streptavidin-HRP detection (Table 3); conditions: binding to murine EphB4; based on the estimated concentration of peptide-coupled PEG molecules; read-out: KD ± SE
# T1 construct: purchased R&D Systems 446-B4-200
# T1 sequence (P54761 16-539 limits assumed): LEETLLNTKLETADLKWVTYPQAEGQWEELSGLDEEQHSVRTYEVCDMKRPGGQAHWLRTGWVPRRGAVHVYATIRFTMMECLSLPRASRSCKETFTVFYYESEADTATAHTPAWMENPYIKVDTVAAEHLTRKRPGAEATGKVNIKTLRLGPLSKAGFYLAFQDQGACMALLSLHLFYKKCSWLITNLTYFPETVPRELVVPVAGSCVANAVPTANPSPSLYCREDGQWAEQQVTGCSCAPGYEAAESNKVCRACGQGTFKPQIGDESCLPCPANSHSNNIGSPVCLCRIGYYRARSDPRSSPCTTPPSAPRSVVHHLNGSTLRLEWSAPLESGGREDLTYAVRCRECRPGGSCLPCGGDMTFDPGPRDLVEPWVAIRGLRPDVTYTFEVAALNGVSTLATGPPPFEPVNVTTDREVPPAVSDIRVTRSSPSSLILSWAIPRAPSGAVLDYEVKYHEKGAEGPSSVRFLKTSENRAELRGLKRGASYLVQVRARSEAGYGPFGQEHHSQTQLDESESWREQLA
# Description: The dissociation constants in Table 3 were measured in binding assays as described below. Reacti-bind Protein A coated strip plates were washed three times with the wash buffer TBST/Ca (TBS, 0.01% Tween, 1 mM CaCl2). Plates were coated with murine EphB4-Fc (reconstituted in PBS 200 μg/ml, diluted to 1 μg/ml in TBST/Ca) 100 μl/well for 1 hour at ambient temperature. The plates were washed four times with TBST/Ca. PEG-TNYL-RAW-biotin (made by The Burnham Institute, La Jolla, Calif.), obtained from the PEGylation reaction described in Example 2 supra, was added at different concentrations in TBST/Ca (100 μl/well) for 1 hour at ambient temperature. The plates were again washed four times with TBST/Ca. Streptavidin-HRP (1:2000) in 100 μl TBST/Ca was added for 1 hour at ambient temperature. The plates were again washed four times with TBST/Ca.
# [1] = target: T2, murine EphB4/murine ephrin-B2 (Mus musculus, UniProt P54761); assay: Inhibition of murine EphB4-AP binding to immobilized murine ephrin-B2-Fc (Table 4); conditions: based on the estimated concentration of peptide-coupled PEG molecules, No PEG control not biotinylated
# T2 sequence (P54761 16-539 limits assumed): T1 sequence (P54761 16-539 limits assumed)
# Description: The IC50 values in Table 4 were obtained from inhibition assays. […] Reati-bind Protein A coated strip plates were washed three times with wash buffer TBST/Ca. Plates were coated with murine ephrin-B2-Fc (reconstituted in PBS 200 μg/ml, diluted to 1 μg/ml with TBST/Ca) 100 μl/well for 1 h at ambient temperature. The control used was Human-Fc (1 μg/ml; 100 μl/well); Human-Fc is the control for ephrin-B2-Fc, which contains the extracellular domain of ephrin-B2 fused to the Fc portion of human IgG1. The plates were washed four times with TBST/Ca. For each well was added: PEG-TNYL-RAW-biotin, from PEGylation reaction in Example 2, supra, at different concentrations; 10 μl murine EphB4-Alkaline Phosphatase (EphB4-AP); and TBST/Ca to 50 μl. Plates were incubates for 3 hours at ambient temperature, then washed four times with TBST/Ca. Substrate, 1 mg/ml PNPP in SEAP buffer, was added in the amount of 100 μl/well. (2×SEAP buffer (pH=9.8) was prepared by: adding 2.1 ml diethanolamine and 10 μl 1M MgCl2 to 10 ml (total) water; adjusting pH to 9.8; wrapping in foil and storing at ambient temperature; and diluting with water to 1× on day of use). Optical density analysis (OD405) was performed using a plate reader to determine the extent to which PEG-TNYL-RAW-biotin inhibits the EphB4-ephrin-B2 interaction. […]
# EphB4 = target: T3, EphB4 (Mus musculus, UniProt P54761); assay: EphB receptor specificity (% binding), Table 1; conditions: binding to EphB4
# T3 sequence (P54761 16-987): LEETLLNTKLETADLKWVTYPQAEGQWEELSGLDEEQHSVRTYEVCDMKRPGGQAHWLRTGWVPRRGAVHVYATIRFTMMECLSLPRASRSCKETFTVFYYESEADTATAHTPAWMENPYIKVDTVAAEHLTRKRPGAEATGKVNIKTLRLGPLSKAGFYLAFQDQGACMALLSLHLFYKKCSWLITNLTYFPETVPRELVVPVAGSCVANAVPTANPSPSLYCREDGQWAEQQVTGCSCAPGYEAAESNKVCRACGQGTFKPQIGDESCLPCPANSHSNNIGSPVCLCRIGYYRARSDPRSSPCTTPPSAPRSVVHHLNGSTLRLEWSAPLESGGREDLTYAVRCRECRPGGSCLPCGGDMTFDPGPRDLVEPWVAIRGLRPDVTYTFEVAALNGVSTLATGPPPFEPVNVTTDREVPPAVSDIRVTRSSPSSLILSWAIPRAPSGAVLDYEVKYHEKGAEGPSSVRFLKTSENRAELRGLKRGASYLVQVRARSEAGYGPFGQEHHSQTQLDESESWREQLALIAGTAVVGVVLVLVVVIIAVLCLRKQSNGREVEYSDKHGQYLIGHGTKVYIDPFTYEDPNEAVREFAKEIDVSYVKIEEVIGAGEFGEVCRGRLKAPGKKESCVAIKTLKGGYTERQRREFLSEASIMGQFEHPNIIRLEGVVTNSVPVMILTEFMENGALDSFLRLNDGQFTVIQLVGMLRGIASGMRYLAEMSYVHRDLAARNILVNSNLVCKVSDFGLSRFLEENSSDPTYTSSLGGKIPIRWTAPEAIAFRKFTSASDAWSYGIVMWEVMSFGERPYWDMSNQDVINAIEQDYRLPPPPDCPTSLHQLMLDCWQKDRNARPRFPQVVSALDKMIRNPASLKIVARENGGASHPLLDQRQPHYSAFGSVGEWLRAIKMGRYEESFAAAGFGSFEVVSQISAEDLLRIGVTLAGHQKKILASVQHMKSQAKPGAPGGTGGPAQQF
# EphB1 [2] = assay: EphB receptor specificity (% binding), Table 1; conditions: binding to EphB1
# EphB2 = EphB2 (Homo sapiens, UniProt P29323); assay: EphB receptor specificity (% binding), Table 1; conditions: binding to EphB2
# EphB2, sequence (P29323 19-1055): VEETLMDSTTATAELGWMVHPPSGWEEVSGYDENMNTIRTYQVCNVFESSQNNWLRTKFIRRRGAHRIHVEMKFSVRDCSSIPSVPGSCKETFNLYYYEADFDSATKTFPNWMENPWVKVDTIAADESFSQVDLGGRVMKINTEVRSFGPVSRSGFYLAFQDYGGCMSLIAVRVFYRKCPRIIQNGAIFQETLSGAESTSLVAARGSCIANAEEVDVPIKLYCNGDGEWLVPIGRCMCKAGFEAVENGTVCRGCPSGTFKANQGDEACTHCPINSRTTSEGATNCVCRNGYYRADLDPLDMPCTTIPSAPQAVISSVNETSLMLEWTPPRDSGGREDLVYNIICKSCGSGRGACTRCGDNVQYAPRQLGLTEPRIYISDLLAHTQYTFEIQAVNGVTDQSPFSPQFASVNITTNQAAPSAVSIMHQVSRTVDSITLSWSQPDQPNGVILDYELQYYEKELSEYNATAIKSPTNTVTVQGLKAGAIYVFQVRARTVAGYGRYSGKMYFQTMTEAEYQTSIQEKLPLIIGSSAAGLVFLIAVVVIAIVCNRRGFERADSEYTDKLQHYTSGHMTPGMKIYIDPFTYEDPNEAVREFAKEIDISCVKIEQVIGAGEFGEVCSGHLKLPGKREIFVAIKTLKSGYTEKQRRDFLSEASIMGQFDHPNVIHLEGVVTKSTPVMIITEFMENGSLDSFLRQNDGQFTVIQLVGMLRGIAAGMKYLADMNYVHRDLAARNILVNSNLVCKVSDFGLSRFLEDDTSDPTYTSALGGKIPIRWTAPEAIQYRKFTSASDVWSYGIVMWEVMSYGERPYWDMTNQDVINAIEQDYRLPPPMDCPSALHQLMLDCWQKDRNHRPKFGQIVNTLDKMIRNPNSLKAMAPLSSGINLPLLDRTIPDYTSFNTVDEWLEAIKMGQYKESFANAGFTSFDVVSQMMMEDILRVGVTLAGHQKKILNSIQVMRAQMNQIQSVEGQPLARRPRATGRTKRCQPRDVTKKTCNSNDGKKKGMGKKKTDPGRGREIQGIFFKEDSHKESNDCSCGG
# EphB1 [3] = target: T4, EphB1 (Homo sapiens, UniProt P54762); assay: Inhibition of ephrin-B2 AP binding by peptides panned on EphB1 (Table 1)
# T4 sequence (P54762 18-540 limits assumed): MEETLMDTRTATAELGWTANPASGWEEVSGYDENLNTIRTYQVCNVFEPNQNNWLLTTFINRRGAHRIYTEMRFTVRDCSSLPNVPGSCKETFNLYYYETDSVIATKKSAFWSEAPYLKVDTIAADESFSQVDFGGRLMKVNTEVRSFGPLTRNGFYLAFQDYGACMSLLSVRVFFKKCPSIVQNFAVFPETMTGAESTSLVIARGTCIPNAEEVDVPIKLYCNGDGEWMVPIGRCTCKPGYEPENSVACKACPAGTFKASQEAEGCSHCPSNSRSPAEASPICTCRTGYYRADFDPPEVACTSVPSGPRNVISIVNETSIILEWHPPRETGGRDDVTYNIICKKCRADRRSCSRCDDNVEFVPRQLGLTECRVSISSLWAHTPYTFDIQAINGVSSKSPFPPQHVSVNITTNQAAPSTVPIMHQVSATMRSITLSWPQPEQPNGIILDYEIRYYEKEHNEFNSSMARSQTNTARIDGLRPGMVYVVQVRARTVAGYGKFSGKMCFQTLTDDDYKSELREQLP
molecule,measurement,setting,value
"3.4 Kd (dimer): two TNYL-RAW peptides (with biotin) conjugated to a 3.4 kDa bifunctional PEG (SMB-PEG-SMB) (TNYLFSPNGPIARAW; also: biotin, position not given here, dimer: two peptides joined by 3.4 kDa bifunctional PEG (SMB-PEG-SMB))",Kd,murine EphB4,0.9 ± 0.3 nM
"10 Kd (dimer): two TNYL-RAW peptides (with biotin) conjugated to a 10 kDa bifunctional PEG (SMB-PEG-SMB) (TNYLFSPNGPIARAW; also: biotin, position not given here, dimer: two peptides joined by 10 kDa bifunctional PEG (SMB-PEG-SMB))",Kd,murine EphB4,0.9 ± 0.2 nM
same,IC50,[1],9 ± 2 nM
"10 Kd (monomer): one TNYL-RAW peptide (with biotin) conjugated to a 10 kDa PEG molecule (TNYLFSPNGPIARAW; also: conjugated to a 10 kDa PEG, site not given here, biotin, position not given here)",Kd,murine EphB4,1.4 ± 0.7 nM
same,IC50,[1],21 ± 5 nM
35 (SGHQLLNKMPN; EphB4-binding peptide) [compound 35],EphB Receptor Specificity (% Binding) B4,EphB4,100%
CC[C@H](C)[C@H](NC(=O)[C@H](C)NC(=O)[C@H](Cc1ccccc1)NC(=O)[C@@H]1CCCN1C(=O)[C@H](CCC(=O)O)NC(=O)[C@@H](NC(=O)[C@@H](NC(=O)[C@H](Cc1c[nH]c2ccccc12)NC(=O)[C@H](Cc1c[nH]cn1)NC(=O)[C@@H](N)Cc1c[nH]c2ccccc12)[C@@H](C)O)[C@@H](C)CC)C(=O)N[C@H](C(=O)N[C@@H](CO)C(=O)O)[C@@H](C)O [compound 8],EphB Receptor Specificity (% Binding) B1,EphB1 [2],99%
CC[C@H](C)[C@H](NC(=O)[C@H](CCCNC(=N)N)NC(=O)[C@H](Cc1c[nH]c2ccccc12)NC(=O)[C@H](Cc1c[nH]cn1)NC(=O)[C@@H](N)CC(=O)O)C(=O)N[C@@H](CC(C)C)C(=O)N1CCC[C@H]1C(=O)N[C@@H](Cc1ccccc1)C(=O)N[C@@H](CO)C(=O)N[C@@H](CC(C)C)C(=O)N[C@@H](CO)C(=O)N[C@@H](CO)C(=O)O [compound 10],EphB Receptor Specificity (% Binding) B1,EphB1 [2],53%
CC[C@H](C)[C@H](NC(=O)[C@@H]1CCCN1C(=O)[C@H](Cc1c[nH]c2ccccc12)NC(=O)[C@H](Cc1c[nH]cn1)NC(=O)[C@@H](N)CO)C(=O)N[C@@H](CO)C(=O)N1CCC[C@H]1C(=O)N[C@@H](Cc1ccc(O)cc1)C(=O)N[C@@H](CO)C(=O)N[C@@H](CC(C)C)C(=O)N[C@@H](CC(C)C)C(=O)N[C@@H](CO)C(=O)O [compound 14],EphB Receptor Specificity (% Binding) B1,EphB1 [2],39%
CC(C)C[C@H](NC(=O)[C@H](C)NC(=O)[C@@H](N)CC(=O)O)C(=O)N[C@@H](CC(N)=O)C(=O)N[C@@H](CC(=O)O)C(=O)N[C@@H](Cc1c[nH]c2ccccc12)C(=O)N[C@@H](CC(C)C)C(=O)N[C@@H](CC(C)C)C(=O)N[C@@H](Cc1ccccc1)C(=O)N[C@@H](CCCNC(=N)N)C(=O)N1CCC[C@H]1C(=O)N[C@@H](Cc1c[nH]c2ccccc12)C(=O)O [compound 20],EphB Receptor Specificity (% Binding) B1,EphB1 [2],0%
CC[C@H](C)[C@H](NC(=O)[C@@H]1CCCN1C(=O)CNC(=O)[C@H](CC(N)=O)NC(=O)[C@@H]1CCCN1C(=O)[C@H](CO)NC(=O)[C@H](Cc1ccccc1)NC(=O)[C@H](CC(C)C)NC(=O)[C@H](Cc1ccc(O)cc1)NC(=O)[C@H](CC(N)=O)NC(=O)[C@@H](N)[C@@H](C)O)C(=O)N[C@@H](C)C(=O)O [compound 24],EphB Receptor Specificity (% Binding) B1,EphB1 [2],5%
CC[C@H](C)[C@H](NC(=O)[C@@H](NC(=O)[C@@H]1CCCN1C(=O)[C@@H](N)CC(N)=O)C(C)C)C(=O)NCC(=O)N1CCC[C@H]1C(=O)N[C@H](C(=O)N[C@@H](CCC(N)=O)C(=O)N[C@@H](CCCNC(=N)N)C(=O)N[C@@H](C)C(=O)N[C@@H](Cc1c[nH]c2ccccc12)C(=O)N[C@H](C(=O)O)[C@@H](C)O)[C@@H](C)CC [compound 27],EphB Receptor Specificity (% Binding) B1,EphB1 [2],1%
AHTFPYPHPKPH [compound 3],EphB Receptor Specificity (% Binding) B1,EphB1 [2],100%
same,EphB Receptor Specificity (% Binding) B2,EphB2,4%
same,IC50,EphB1 [3],~150000 nM
DHNHNLYNPWRL [compound 21],EphB Receptor Specificity (% Binding) B1,EphB1 [2],9%
same,EphB Receptor Specificity (% Binding) B2,EphB2,8%
EWLSPNLAPSVR [compound 1],EphB Receptor Specificity (% Binding) B2,EphB2,2%
same,IC50,EphB1 [3]; panning receptor EphB1,~10000 nM
EWYMKFPPEHYF [compound 19],EphB Receptor Specificity (% Binding) B1,EphB1 [2],22%
FSPQGPAARNFA [compound 25],EphB Receptor Specificity (% Binding) B1,EphB1 [2],13%
TNYLFSPNGPIARAW [TNYL-RAW],stability in cell conditioned medium,cell conditioned medium in the absence of the cells (FIG. 3C),rapidly lost
same,stability in cell culture medium with PC3 cells,medium replaced with fresh medium just before adding the peptide (FIG. 3B),remained intact for several hours
same,stability in cell conditioned medium with protease inhibitors,"mixture of protease inhibitors (aprotinin, PMSF, leupeptin, pepstatin) added to conditioned medium (FIG. 3D)",reduce peptide instability
TYFDFQAWSIRA [compound 22],EphB Receptor Specificity (% Binding) B1,EphB1 [2],10%
